Results: patent US12146004B2, “Polymyxin compounds and uses thereof” (priority 2014, dated 2024)
Converted amounts (≈) assume the structure as drawn.

What was measured:
Format in all cases: cell-based
Acinetobacter baumannii = system: Acinetobacter baumannii
Method in brief: (§1)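 In vitro susceptibility was determined across up to nine strains of each pathogen, some resistant. Potency is given as MIC, μg/mL.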

Escherichia coli = system: Escherichia coli
Method in brief: as §1

Klebsiella pneumoniae = system: Klebsiella pneumoniae
Method in brief: as §1

Pseudomonas aeruginosa = system: Pseudomonas aeruginosa
Method in brief: as §1

HK-2 cells = system: HK-2 cells
Excerpt: Values are reported relative to Polymyxin B.

Row | Compound | MIC A. baumanii 053 (Acinetobacter baumannii) | MIC A. baumanii 056 (Acinetobacter baumannii) | MIC A. baumanii ATCC BAA-747 (Acinetobacter baumannii) | MIC E. coli 058 (Escherichia coli) | MIC E. coli 059 (Escherichia coli) | MIC E. coli 060 (Escherichia coli) | MIC E. coli 061 (Escherichia coli) | MIC E. coli ATCC 25922 (Escherichia coli) | MIC K. pneumoniae 062 (Klebsiella pneumoniae) | MIC K. pneumoniae 064 (Klebsiella pneumoniae) | MIC K. pneumoniae 065 (Klebsiella pneumoniae) | MIC K. pneumoniae 066 (Klebsiella pneumoniae) | MIC K. pneumoniae 067 (Klebsiella pneumoniae) | MIC K. pneumoniae ATCC 4352 (Klebsiella pneumoniae) | MIC P. aeruginosa 068 (Pseudomonas aeruginosa) | MIC P. aeruginosa 070 (Pseudomonas aeruginosa) | MIC P. aeruginosa ATCC 27853 (Pseudomonas aeruginosa) | HK-2 IC50 (HK-2 cells) | MIC K. pneumoniae 063 (Klebsiella pneumoniae) | other results
1 | CCCCCCCCC1CNCC1C(=O)N[C@H](C(=O)N[C@@H](CCN)C(=O)N[C@H]1CCNC(=O)[C@H]([C@@H](C)O)NC(=O)[C@H](CCN)NC(=O)[C@H](CCN)NC(=O)[C@H](CC(C)C)NC(=O)[C@@H](Cc2ccc(-c3ccccc3)cc2)NC(=O)[C@H](CCN)NC1=O)C(C)O (single isomer, unassigned; isomer 2) [Example 8, trans-4-octylpyrrolidine-3-carbonyl polymyxin [D-(4-phenyl)Phe]-6] nonapeptide. Isomer 2] | 4 µg/mL (≈ 3.2 µM) | 2 µg/mL (≈ 1.6 µM) | 1 µg/mL (≈ 0.801 µM) | 2 µg/mL (≈ 1.6 µM) | 1 µg/mL (≈ 0.801 µM) | 2 µg/mL (≈ 1.6 µM) | 4 µg/mL (≈ 3.2 µM) | 1 µg/mL (≈ 0.801 µM) | 4 µg/mL (≈ 3.2 µM) | 1 µg/mL (≈ 0.801 µM) | 1 µg/mL (≈ 0.801 µM) | 0.5 µg/mL (≈ 0.4 µM) | 8 µg/mL (≈ 6.41 µM) | 1 µg/mL (≈ 0.801 µM) | 2 µg/mL (≈ 1.6 µM) | 2 µg/mL (≈ 1.6 µM) | 1 µg/mL (≈ 0.801 µM) | 3 µg/mL |  | 
2 | CCCCCCCCC1CNCC1C(=O)N[C@H](C(=O)N[C@@H](CCN)C(=O)N[C@H]1CCNC(=O)[C@H]([C@@H](C)O)NC(=O)[C@H](CCN)NC(=O)[C@H](CCN)NC(=O)[C@H](CC(C)C)NC(=O)[C@@H](Cc2ccccc2-c2ccccc2)NC(=O)[C@H](CCN)NC1=O)C(C)O (single isomer, unassigned; isomer 2) [Example 10, trans-4-octylpyrrolidine-3-carbonyl polymyxin [D-(2-phenyl)Phe]-6] nonapeptide. Isomer 2] | 4 µg/mL (≈ 3.2 µM) | 4 µg/mL (≈ 3.2 µM) | 1 µg/mL (≈ 0.801 µM) | 1 µg/mL (≈ 0.801 µM) | 1 µg/mL (≈ 0.801 µM) | 2 µg/mL (≈ 1.6 µM) | 2 µg/mL (≈ 1.6 µM) | 2 µg/mL (≈ 1.6 µM) | 2 µg/mL (≈ 1.6 µM) | 2 µg/mL (≈ 1.6 µM) | 1 µg/mL (≈ 0.801 µM) | 4 µg/mL (≈ 3.2 µM) | 4 µg/mL (≈ 3.2 µM) | 1 µg/mL (≈ 0.801 µM) | 2 µg/mL (≈ 1.6 µM) | 2 µg/mL (≈ 1.6 µM) | 2 µg/mL (≈ 1.6 µM) | 4 µg/mL | 8 µg/mL (≈ 6.41 µM) | 
3 | CC(C)CC1CNCC(C(=O)N[C@H](C(=O)N[C@@H](CN)C(=O)N[C@H]2CCNC(=O)[C@H]([C@@H](C)O)NC(=O)[C@H](CCN)NC(=O)[C@H](CCN)NC(=O)[C@H](CC(C)C)NC(=O)[C@@H](Cc3ccc(Br)cc3)NC(=O)[C@H](CCN)NC2=O)C(C)O)C1 (single isomer, unassigned; isomer 2) [Example 12, (trans-5-(isobutyl-piperidine)-3-carbonyl L-Thr-L-Dap-polymyxin [D-(4-bromo Phe)]-6] heptapeptide Isomer 2] | 8 µg/mL (≈ 6.69 µM) |  | 0.125 µg/mL (≈ 0.105 µM) | 0.25 µg/mL (≈ 0.209 µM) | 1 µg/mL (≈ 0.837 µM) | 1 µg/mL (≈ 0.837 µM) | 1 µg/mL (≈ 0.837 µM) | 0.125 µg/mL (≈ 0.105 µM) | 8 µg/mL (≈ 6.69 µM) | 1 µg/mL (≈ 0.837 µM) | 0.5 µg/mL (≈ 0.418 µM) | 1 µg/mL (≈ 0.837 µM) | 8 µg/mL (≈ 6.69 µM) | 0.125 µg/mL (≈ 0.105 µM) | 1 µg/mL (≈ 0.837 µM) | 1 µg/mL (≈ 0.837 µM) | 0.25 µg/mL (≈ 0.209 µM) | 54 µg/mL | 4 µg/mL (≈ 3.35 µM) | 
4 | CC(C)CC(CN)C(=O)N[C@H](C(=O)N[C@@H](CN)C(=O)N[C@H]1CCNC(=O)[C@H]([C@@H](C)O)NC(=O)[C@H](CCN)NC(=O)[C@H](CCN)NC(=O)[C@H](CC(C)C)NC(=O)[C@@H](Cc2ccc(Br)cc2)NC(=O)[C@H](CCN)NC1=O)C(C)O (single isomer, unassigned; isomer 2) [Example 14, 2-aminomethyl-4-methyl pentanoyl polymyxin L-Thr-L-Dap-polymyxin [D-(4-bromo Phe)]-6]heptapeptide. Isomer 2] | 32 µg/mL (≈ 27.7 µM) | 16 µg/mL (≈ 13.9 µM) | 0.125 µg/mL (≈ 0.108 µM) | 4 µg/mL (≈ 3.46 µM) | 8 µg/mL (≈ 6.93 µM) | 8 µg/mL (≈ 6.93 µM) | 16 µg/mL (≈ 13.9 µM) | 0.25 µg/mL (≈ 0.216 µM) | 8 µg/mL (≈ 6.93 µM) | 8 µg/mL (≈ 6.93 µM) | 8 µg/mL (≈ 6.93 µM) | 8 µg/mL (≈ 6.93 µM) | >64 µg/mL | 0.25 µg/mL (≈ 0.216 µM) | 8 µg/mL (≈ 6.93 µM) | 16 µg/mL (≈ 13.9 µM) | 0.5 µg/mL (≈ 0.433 µM) | 76 µg/mL | 64 µg/mL (≈ 55.4 µM) | 
5 | CC(C)CC(CN)C(=O)N[C@H](C(=O)N[C@@H](CN)C(=O)N[C@H]1CCNC(=O)[C@H]([C@@H](C)O)NC(=O)[C@H](CCN)NC(=O)[C@H](CCN)NC(=O)[C@H](CC(C)C)NC(=O)[C@@H](Cc2ccc(-c3ccccc3)cc2)NC(=O)[C@H](CCN)NC1=O)C(C)O (single isomer, unassigned; isomer 2) [Example 16, 2-aminomethyl-4-methyl pentanoyl polymyxin L-Thr-L-Dap-polymyxin [D-(4-phenyl Phe)]-6]heptapeptide. Isomer 2] | 16 µg/mL (≈ 13.9 µM) | 4 µg/mL (≈ 3.47 µM) | 0.25 µg/mL (≈ 0.217 µM) | 4 µg/mL (≈ 3.47 µM) | 1 µg/mL (≈ 0.868 µM) | 5 µg/mL (≈ 4.34 µM) | 16 µg/mL (≈ 13.9 µM) | 0.25 µg/mL (≈ 0.217 µM) | 4 µg/mL (≈ 3.47 µM) | 2 µg/mL (≈ 1.74 µM) | 1 µg/mL (≈ 0.868 µM) | 4 µg/mL (≈ 3.47 µM) | 32 µg/mL (≈ 27.8 µM) | 0.5 µg/mL (≈ 0.434 µM) | 4 µg/mL (≈ 3.47 µM) | 8 µg/mL (≈ 6.94 µM) | 0.5 µg/mL (≈ 0.434 µM) | 32 µg/mL | 16 µg/mL (≈ 13.9 µM) | 
6 | CC(C)Cc1ccc(C[C@H]2NC(=O)[C@H](CCN)NC(=O)[C@@H](NC(=O)[C@H](CN)NC(=O)[C@@H](NC(=O)C3CNCC(CC(C)C)C3)C(C)O)CCNC(=O)[C@H]([C@@H](C)O)NC(=O)[C@H](CCN)NC(=O)[C@H](CCN)NC(=O)[C@H](CC(C)C)NC2=O)cc1 (single isomer, unassigned; isomer 2) [Example 25, (Ttrans-5-(isobutyl-piperidine)-3-carbonyl L-Thr-L-Dap-polymyxin [D-(4-isobutyl Phe)]-6]heptapeptide isomer 2] |  |  | 0.5 µg/mL (≈ 0.426 µM) | 1 µg/mL (≈ 0.853 µM) |  |  | 0.5 µg/mL (≈ 0.426 µM) | 0.5 µg/mL (≈ 0.426 µM) |  |  | 1 µg/mL (≈ 0.853 µM) |  |  | 0.25 µg/mL (≈ 0.213 µM) | 1 µg/mL (≈ 0.853 µM) | 1 µg/mL (≈ 0.853 µM) | 1 µg/mL (≈ 0.853 µM) | 20 µg/mL | 2 µg/mL (≈ 1.71 µM) | MIC A. baumanii NCTC 13424 (Acinetobacter baumannii): 0.5 µg/mL (≈ 0.426 µM); MIC P. aeruginosa CCUG 59347 (Pseudomonas aeruginosa): 2 µg/mL (≈ 1.71 µM)
7 | CC(C)C[C@@H]1NC(=O)[C@@H](CC2CCCCC2)NC(=O)[C@H](CCN)NC(=O)[C@@H](NC(=O)[C@H](CN)NC(=O)[C@@H](NC(=O)CC(N)C2CCCCC2)C(C)O)CCNC(=O)[C@H]([C@@H](C)O)NC(=O)[C@H](CCN)NC(=O)[C@H](CCN)NC1=O (single isomer, unassigned; isomer 2) [Example 33, 3-amino-3-cyclohexylpropanoyl L-Thr-L-Dap-polymyxin [D-cyclohexylalanine]-6 heptapeptide. Isomer 2] | 64 µg/mL (≈ 57.7 µM) | 32 µg/mL (≈ 28.9 µM) | 0.25 µg/mL (≈ 0.226 µM) | 2 µg/mL (≈ 1.8 µM) |  |  | 16 µg/mL (≈ 14.4 µM) | 0.25 µg/mL (≈ 0.226 µM) |  |  | 2 µg/mL (≈ 1.8 µM) |  |  | 0.03 µg/mL (≈ 0.0271 µM) | 8 µg/mL (≈ 7.22 µM) | 8 µg/mL (≈ 7.22 µM) | 0.25 µg/mL (≈ 0.226 µM) | 75 µg/mL | 64 µg/mL (≈ 57.7 µM) | MIC A. baumanii NCTC 13424 (Acinetobacter baumannii): 0.125 µg/mL (≈ 0.113 µM); MIC E. coli NCTC 9001 (Escherichia coli): 0.125 µg/mL (≈ 0.113 µM); MIC K. pneumoniae ATCC 13882 (Klebsiella pneumoniae): 0.5 µg/mL (≈ 0.451 µM); MIC P. aeruginosa CCUG 59347 (Pseudomonas aeruginosa): 0.5 µg/mL (≈ 0.451 µM)
